{
  "source": "patent US20260274894A1",
  "about": "“CYCLIC POLYPEPTIDE COMPOUND AND USE THEREOF” (BIVISION PHARMACEUTICALS, INC., priority 2023, published 2026)",
  "key": {"[1]": {"experiment": "Determination of C Log P (n-octanol/water partition, gamma counts)", "format": "physicochemical", "procedure": "Two EP tubes were taken, and 100 μL of saturated n-octanol aqueous solution and 80 µL of pure water were added to each tube, respectively. […] After shaking and mixing for 2 hours, the tubes were centrifuged at room temperature at 2000 rpm/min for 5 minutes. 20 μL was taken from the upper layer (lipid layer) and lower layer (aqueous layer) of each tube, and gamma counts were measured."}, "HT1080 2 #": {"system": "HT1080 2 #", "experiment": "Therapeutic results of ^177Lu-labeled compound in tumor-bearing mice (tumor volume)", "format": "in vivo, Balb/c Nude mice", "procedure": "The body weight and tumor size were measured."}, "FAP protein": {"target": "T1, FAP protein (Homo sapiens, UniProt Q12884)", "T1 construct": "purchased Sinobiological", "T1 sequence (Q12884 1-760)": "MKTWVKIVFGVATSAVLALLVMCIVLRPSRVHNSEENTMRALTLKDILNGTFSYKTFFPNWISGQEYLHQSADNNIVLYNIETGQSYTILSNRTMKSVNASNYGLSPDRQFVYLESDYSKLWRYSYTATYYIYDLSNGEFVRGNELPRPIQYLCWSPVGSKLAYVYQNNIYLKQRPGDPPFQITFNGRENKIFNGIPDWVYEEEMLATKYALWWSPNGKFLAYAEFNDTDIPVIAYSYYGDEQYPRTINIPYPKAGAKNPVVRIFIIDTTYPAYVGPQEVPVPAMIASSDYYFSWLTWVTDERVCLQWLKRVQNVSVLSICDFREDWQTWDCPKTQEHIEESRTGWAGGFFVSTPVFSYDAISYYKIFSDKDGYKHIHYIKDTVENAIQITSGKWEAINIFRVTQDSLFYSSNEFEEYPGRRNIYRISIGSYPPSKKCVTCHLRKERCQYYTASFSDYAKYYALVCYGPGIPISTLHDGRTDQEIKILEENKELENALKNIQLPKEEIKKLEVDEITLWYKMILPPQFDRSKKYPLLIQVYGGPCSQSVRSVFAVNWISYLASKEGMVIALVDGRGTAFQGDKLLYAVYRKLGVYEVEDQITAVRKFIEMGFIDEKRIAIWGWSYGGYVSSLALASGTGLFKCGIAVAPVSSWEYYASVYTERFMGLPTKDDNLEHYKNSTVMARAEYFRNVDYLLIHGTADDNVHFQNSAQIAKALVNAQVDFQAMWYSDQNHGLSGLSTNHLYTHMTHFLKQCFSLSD", "experiment": "Biacore test of compound affinity to FAP protein", "conditions": "Biacore 8K, SA chip, 15° C., 1:1 binding model; for Kd: read-out: pKD (FAP) (converted)", "procedure": "The Biacore 8K (Cytiva) instrument was used to detect ligand binding of the FAP protein (Sinobiological). FAP protein was captured on the SA chip. […] The sensor surface was conditioned by injecting 1M NaCl three consecutive times in 50 mM NaOH. After each ligand injection, additional cleaning was performed using isopropanol in 1M NaCl and 50 mM NaOH (flow path 1 and 2, flow rate of 10 μL/min, injection time of 60 s). […] The analyte was run under the following conditions: analysis temperature of 15° C., analysis step=all set to LMW kinetics; cycle type=single cycle (contact time of 90 s, dissociation time of 1800 s, flow rate of 30 μL/min, flow channels 1 and 2); channel detection=2-1. Data was evaluated using the Biacore Insight Evaluation Software, and the data were fitted to a 1:1 binding model. The Biacore results are shown in Table 2 below: pKD=−Log KD, where KD is the binding affinity of the compound to the FAP protein as measured by Biacore."}},
  "note": "Numbered stars: 1 amine (or outer) side, 2 acyl side, 3 side chain; on linkers, the order of the positions; unused ones are H or OH. Bridge positions count the residues as written; N and C are the ends. Square brackets hold non-standard residues; d marks the D form. Side chains are listed from the residue outwards. Peptide text beside a SMILES is read from it. * marks the point of attachment. ξ: configuration not given here. NH(CH2)2(4-DOTA-piperazinyl) = O=C(O)CN1CCN(CC(=O)O)CCN(CC(=O)N2CCN(CCN*)CC2)CCN(CC(=O)O)CC1; X2 = O=C(O)CN1CCN(CC(=O)O)CCN(CC(=O)N2CCN(CCCN*)CC2)CCN(CC(=O)O)CC1; DOTA = O=C(O)CN1CCN(CC(=O)O)CCN(CC(=O)*)CCN(CC(=O)O)CC1; Azetidine3carboxylic = O=C(C1CN([*:1])C1)[*:2]; mXylylene = c1cc(C[*:1])cc(C[*:2])c1; Cha = N[C@@H](CC1CCCCC1)C(=O)O; Dap = NC[C@H](N)C(=O)O; Hexanoyl = CCCCCC(=O)*; CO = O=C([*:1])[*:2]; ξP = O=C(O)C1CCCN1; Ava = NCCCCC(=O)O; ξC = NC(CS)C(=O)O; NHBu = CCCCN*",
  "data": [
    {"smiles": "CCCCCC(=O)N[C@H]1CCCCn2cc(nn2)CC(C(=O)N[C@@H](CCCCNC(=O)CN2CCN(CC(=O)O)CCN(CC(=O)O)CCN(CC(=O)O)CC2)C(=O)O)NC(=O)[C@H](Cc2ccccc2)NC(=O)[C@H](CCC(N)=O)NC(=O)[C@H]([C@@H](C)O)NC(=O)C2CCCN2C(=O)N[C@@H]2CCCN(C2)C1=O", "note": "(single isomer, unassigned) [^177Lu -JHDC11, metal not drawn]", "values": [
      {"measurement": "logP", "setting": "[1]", "result": -3.65}
    ]},
    {"smiles": "CCCCCC(=O)N[C@H]1CCCCn2cc(nn2)CSC[C@@H](C(=O)N[C@@H](CCCCNC(=O)COCCNC(=O)CN2CCN(CC(=O)O)CCN(CC(=O)O)CCN(CC(=O)O)CC2)C(=O)O)NC(=O)[C@H](Cc2ccccc2)NC(=O)[C@H](CCC(N)=O)NC(=O)[C@H]([C@@H](C)O)NC(=O)[C@@H]2CCCN2C(=O)C2CN(C2)C1=O", "note": "(single isomer, unassigned) [^177Lu -JHDC12, metal not drawn]", "values": [
      {"measurement": "logP", "setting": "[1]", "result": -3.81}
    ]},
    {"smiles": "CCCCNC(=O)N[C@H]1CSCc2cncc(c2)CSC[C@@H](C(=O)N[C@@H](CCC(=O)NCCN2CCN(C(=O)CN3CCN(CC(=O)O)CCN(CC(=O)O)CCN(CC(=O)O)CC3)CC2)C(=O)O)NC(=O)[C@H](CC2CCCCC2)NC(=O)[C@H](CCC(N)=O)NC(=O)[C@H]([C@@H](C)O)NC(=O)[C@@H]2CCCN2C(=O)C2CN(C2)C1=O", "note": "(single isomer, unassigned) [^177Lu-JHDC46, metal not drawn]", "values": [
      {"measurement": "Tumor volume (mm^3)", "setting": "HT1080 2 #; Day 0", "result": "400.31 ± 78.63", "unit": "mm^3"},
      {"measurement": "Tumor volume (mm^3)", "setting": "HT1080 2 #; Day 2", "result": "483.08 ± 95.00", "unit": "mm^3"},
      {"measurement": "Tumor volume (mm^3)", "setting": "HT1080 2 #; Day 6", "result": "203.26 ± 49.63", "unit": "mm^3"},
      {"measurement": "Tumor volume (mm^3)", "setting": "HT1080 2 #; Day 9", "result": "168.29 ± 33.83", "unit": "mm^3"},
      {"measurement": "Tumor volume (mm^3)", "setting": "HT1080 2 #; Day 13", "result": "313.94 ± 119.95", "unit": "mm^3"},
      {"measurement": "Tumor volume (mm^3)", "setting": "HT1080 2 #; Day 16", "result": "686.05 ± 297.66", "unit": "mm^3"}
    ]},
    {"smiles": "CCCCNC(=O)N[C@H]1CSCc2cccc(c2)CSCC(C(=O)N[C@@H](CNC(=O)CCCCNC(=O)CN2CCN(CC(=O)O)CCN(CC(=O)O)CCN(CC(=O)O)CC2)C(=O)O)NC(=O)[C@H](Cc2ccccc2)NC(=O)[C@H](CCC(N)=O)NC(=O)[C@H]([C@@H](C)O)NC(=O)C2CCCN2C(=O)C2CN(C2)C1=O", "note": "(stereo partly drawn) [JHDC41, nBu-urea-[Cys(3MeBn)-hhy39-Pro-Thr-Gln-Phe-Cys]-DAPA-(APTA-DOTA)-OH] ({NHBu-CO}-C[Azetidine3carboxylic][ξP]TQF[ξC][Dap]([Ava-DOTA])-OH; linker 1-7 via mXylylene)", "values": [
      {"measurement": "Kd", "setting": "FAP protein", "result": "10 to 100", "unit": "nM"}
    ]},
    {"smiles": "CCCCCC(=O)N[C@H]1CSCc2cccc(c2)CSCC(C(=O)N[C@@H](CCC(=O)NCCCN2CCN(C(=O)CN3CCN(CC(=O)O)CCN(CC(=O)O)CCN(CC(=O)O)CC3)CC2)C(=O)O)NC(=O)[C@H](Cc2ccccc2)NC(=O)[C@H](CCC(N)=O)NC(=O)[C@H]([C@@H](C)O)NC(=O)C2CCCN2C(=O)C2CN(C2)C1=O", "note": "(stereo partly drawn) [JHDC45, Hex-[Cys(3MeBn)-hhy39-Pro-Thr-Gln-Phe-Cys]-Glu-(aminopropylpiperazine-DOTA)-NH2] (Hexanoyl-C[Azetidine3carboxylic][ξP]TQF[ξC]E(X2)-OH; linker 1-7 via mXylylene)", "values": [
      {"measurement": "Kd", "setting": "FAP protein", "result": "< 10", "unit": "nM"}
    ]},
    {"smiles": "CCCCNC(=O)N[C@H]1CSCc2cccc(c2)CSC[C@@H](C(=O)N[C@@H](CCC(=O)NCCN2CCN(C(=O)CN3CCN(CC(=O)O)CCN(CC(=O)O)CCN(CC(=O)O)CC3)CC2)C(=O)O)NC(=O)[C@H](CC2CCCCC2)NC(=O)[C@H](CCC(N)=O)NC(=O)[C@H]([C@@H](C)O)NC(=O)[C@@H]2CCCN2C(=O)C2CN(C2)C1=O", "note": "[JHDC46, nBu-urea-[Cys(3MePy)-hhy39-Pro-Thr-Gln-hhy34-Cys]-Glu-(aminoethylpiperazine-DOTA)-OH] ({NHBu-CO}-C[Azetidine3carboxylic]PTQ[Cha]CE(NH(CH2)2(4-DOTA-piperazinyl))-OH; linker 1-7 via mXylylene)", "values": [
      {"measurement": "pKD (FAP)", "setting": "FAP protein", "result": "B (B: 7<pKD<8)"}
    ]}
  ]
}
